Measurements from PubChem BioAssay AID2060900 (Molecular Pharmacology Branch, DTP, NCI, 2025).

Test system: 521955-158-R2-J5-PDC complex spheroids, viability
Assay: Anticancer human tumor 521955-158-R2-J5-PDC patient-derived pancreatic carcinoma cell line growth inhibition [RAS]
Conditions: for IC50: curve of first compound; for viability, T/C: stronger effect = lower value
In short: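 Agents were tested in combination matrices in half-log decrements from a top concentration at or near clinical Cmax (10 microM if undetermined). Targets were multi-cell spheroids of tumour lines plus HUVEC and MSC stromal cells.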

[1] = second compound 0.00316 µM, first compound 0.0316 µM
[2] = second compound 0.00316 µM, first compound 0.1 µM
[3] = second compound 0.00316 µM, first compound 0.316 µM
[4] = second compound 0.00316 µM, first compound 1 µM
[5] = second compound 0.01 µM, first compound 0.0316 µM
[6] = second compound 0.01 µM, first compound 0.1 µM
[7] = second compound 0.01 µM, first compound 0.316 µM
[8] = second compound 0.01 µM, first compound 1 µM
[9] = second compound 0.0316 µM, first compound 0.0316 µM
[10] = second compound 0.0316 µM, first compound 0.1 µM
[11] = second compound 0.0316 µM, first compound 0.316 µM
[12] = second compound 0.0316 µM, first compound 1 µM
[13] = second compound 0.1 µM, first compound 0.0316 µM
[14] = second compound 0.1 µM, first compound 0.1 µM
[15] = second compound 0.1 µM, first compound 0.316 µM
[16] = second compound 0.1 µM, first compound 1 µM
[17] = second compound 0.316 µM, first compound 0.0316 µM
[18] = second compound 0.316 µM, first compound 0.1 µM
[19] = second compound 0.316 µM, first compound 0.316 µM
[20] = second compound 0.316 µM, first compound 1 µM
[21] = second compound 1 µM, first compound 0.0316 µM
[22] = second compound 1 µM, first compound 0.1 µM
[23] = second compound 1 µM, first compound 0.316 µM
[24] = second compound 1 µM, first compound 1 µM
[25] = second compound 0.00316 µM, first compound 0.000949 µM
[26] = second compound 0.00316 µM, first compound 0.003 µM
[27] = second compound 0.00316 µM, first compound 0.00949 µM
[28] = second compound 0.00316 µM, first compound 0.03 µM
[29] = second compound 0.00316 µM, first compound 0.0949 µM
[30] = second compound 0.00316 µM, first compound 0.3 µM
[31] = second compound 0.01 µM, first compound 0.000949 µM
[32] = second compound 0.01 µM, first compound 0.003 µM
[33] = second compound 0.01 µM, first compound 0.00949 µM
[34] = second compound 0.01 µM, first compound 0.03 µM
[35] = second compound 0.01 µM, first compound 0.0949 µM
[36] = second compound 0.01 µM, first compound 0.3 µM
[37] = second compound 0.0316 µM, first compound 0.000949 µM
[38] = second compound 0.0316 µM, first compound 0.003 µM
[39] = second compound 0.0316 µM, first compound 0.00949 µM
[40] = second compound 0.0316 µM, first compound 0.03 µM
[41] = second compound 0.0316 µM, first compound 0.0949 µM
[42] = second compound 0.0316 µM, first compound 0.3 µM
[43] = second compound 0.1 µM, first compound 0.000949 µM
[44] = second compound 0.1 µM, first compound 0.003 µM
[45] = second compound 0.1 µM, first compound 0.00949 µM
[46] = second compound 0.1 µM, first compound 0.03 µM
[47] = second compound 0.1 µM, first compound 0.0949 µM
[48] = second compound 0.1 µM, first compound 0.3 µM
[49] = second compound 0.316 µM, first compound 0.000949 µM
[50] = second compound 0.316 µM, first compound 0.003 µM
[51] = second compound 0.316 µM, first compound 0.00949 µM
[52] = second compound 0.316 µM, first compound 0.03 µM
[53] = second compound 0.316 µM, first compound 0.0949 µM
[54] = second compound 0.316 µM, first compound 0.3 µM
[55] = second compound 1 µM, first compound 0.000949 µM
[56] = second compound 1 µM, first compound 0.003 µM
[57] = second compound 1 µM, first compound 0.00949 µM
[58] = second compound 1 µM, first compound 0.03 µM
[59] = second compound 1 µM, first compound 0.0949 µM
[60] = second compound 1 µM, first compound 0.3 µM
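Further: compound exposure lasted seven days before the viability read.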
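Wherever viability, T/C is given: spheroids also contain HUVEC endothelial cells and mesenchymal stem cells as stroma.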

CC(=O)OC12COC1CC(O)C1(C)C(=O)C(O)C3=C(C)C(OC(=O)C(O)C(NC(=O)OC(C)(C)C)c4ccccc4)CC(O)(C(OC(=O)c4ccccc4)C21)C3(C)C (stereo not drawn) + C=CC(=O)N1CCN(c2nc(OCC3CCCN3C)nc3c(F)c(-c4nc(N)cc(C)c4C(F)(F)F)c(Cl)cc23)C(C)C1
IC50 (second compound 0.00316 µM): < 0.0316 µM
IC50 (second compound 0.01 µM): < 0.0316 µM
IC50 (second compound 0.0316 µM): < 0.0316 µM
IC50 (second compound 0.1 µM): < 0.0316 µM
IC50 (second compound 0.316 µM): < 0.0316 µM
IC50 (second compound 1 µM): < 0.0316 µM
viability, T/C [1]: 37.3%
viability, T/C [2]: 34.1%
viability, T/C [3]: 24.9%
viability, T/C [4]: 29.8%
viability, T/C (second compound 0.00316 µM, first compound 3.16 µM): 40.8%
viability, T/C (second compound 0.00316 µM, first compound 10 µM): 64.4%
viability, T/C [5]: 38.5%
viability, T/C [6]: 34.3%
viability, T/C [7]: 21.5%
viability, T/C [8]: 30.6%
viability, T/C (second compound 0.01 µM, first compound 3.16 µM): 41.4%
viability, T/C (second compound 0.01 µM, first compound 10 µM): 52.6%
viability, T/C [9]: 39.7%
viability, T/C [10]: 40.6%
viability, T/C [11]: 28.2%
viability, T/C [12]: 29.7%
viability, T/C (second compound 0.0316 µM, first compound 3.16 µM): 44.9%
viability, T/C (second compound 0.0316 µM, first compound 10 µM): 44.9%
viability, T/C [13]: 34.3%
viability, T/C [14]: 31.5%
viability, T/C [15]: 33.1%
viability, T/C [16]: 25.6%
viability, T/C (second compound 0.1 µM, first compound 3.16 µM): 35.8%
viability, T/C (second compound 0.1 µM, first compound 10 µM): 59.3%
viability, T/C [17]: 38.4%
viability, T/C [18]: 33.9%
viability, T/C [19]: 21.7%
viability, T/C [20]: 34.6%
viability, T/C (second compound 0.316 µM, first compound 3.16 µM): 46.1%
viability, T/C (second compound 0.316 µM, first compound 10 µM): 51.9%
viability, T/C [21]: 31.8%
viability, T/C [22]: 32.3%
viability, T/C [23]: 19.1%
viability, T/C [24]: 22%
viability, T/C (second compound 1 µM, first compound 3.16 µM): 46.3%
viability, T/C (second compound 1 µM, first compound 10 µM): 55.5%

CC1(C)CCC(Nc2ncc(C(F)(F)F)c(-c3c[nH]c4c(P(C)(C)=O)c(C#N)ccc34)n2)CN1 (stereo not drawn) + C=CC(=O)N1CCN(c2nc(OCC3CCCN3C)nc3c(F)c(-c4nc(N)cc(C)c4C(F)(F)F)c(Cl)cc23)C(C)C1
IC50 (second compound 0.00316 µM): > 0.3 µM
IC50 (second compound 0.01 µM): > 0.3 µM
IC50 (second compound 0.0316 µM): > 0.3 µM
IC50 (second compound 0.1 µM): > 0.3 µM
IC50 (second compound 0.316 µM): > 0.3 µM
IC50 (second compound 1 µM): > 0.3 µM
viability, T/C [25]: 80.7%
viability, T/C [26]: 73.7%
viability, T/C [27]: 67.7%
viability, T/C [28]: 51.1%
viability, T/C [29]: 49.5%
viability, T/C [30]: 53.3%
viability, T/C [31]: 81.2%
viability, T/C [32]: 78.5%
viability, T/C [33]: 52.6%
viability, T/C [34]: 53%
viability, T/C [35]: 58.3%
viability, T/C [36]: 60.4%
viability, T/C [37]: 75.4%
viability, T/C [38]: 78.7%
viability, T/C [39]: 57.5%
viability, T/C [40]: 55.8%
viability, T/C [41]: 73%
viability, T/C [42]: 53.8%
viability, T/C [43]: 90%
viability, T/C [44]: 86.3%
viability, T/C [45]: 57.9%
viability, T/C [46]: 64.2%
viability, T/C [47]: 65.8%
viability, T/C [48]: 56.9%
viability, T/C [49]: 84.5%
viability, T/C [50]: 76.5%
viability, T/C [51]: 51.3%
viability, T/C [52]: 65.3%
viability, T/C [53]: 67%
viability, T/C [54]: 49.2%
viability, T/C [55]: 106%
viability, T/C [56]: 77.5%
viability, T/C [57]: 56.3%
viability, T/C [58]: 51.9%
viability, T/C [59]: 63.9%
viability, T/C [60]: 55.4%

CCc1c2c(nc3ccc(O)cc13)-c1cc3c(c(=O)n1C2)COC(=O)[C@]3(O)CC + C=CC(=O)N1CCN(c2nc(OCC3CCCN3C)nc3c(F)c(-c4nc(N)cc(C)c4C(F)(F)F)c(Cl)cc23)C(C)C1
IC50 (second compound 0.00316 µM): 0.00229 µM
IC50 (second compound 0.01 µM): 0.00237 µM
IC50 (second compound 0.0316 µM): 0.00347 µM
IC50 (second compound 0.1 µM): 0.0025 µM
IC50 (second compound 0.316 µM): 0.00221 µM
IC50 (second compound 1 µM): 0.00282 µM
viability, T/C [25]: 82.8%
viability, T/C [26]: 39.5%
viability, T/C [27]: 20.3%
viability, T/C [28]: 7.87%
viability, T/C [29]: 6.75%
viability, T/C [30]: 6.61%
viability, T/C [31]: 68.7%
viability, T/C [32]: 45.3%
viability, T/C [33]: 18.4%
viability, T/C [34]: 8.97%
viability, T/C [35]: 8.82%
viability, T/C [36]: 4.69%
viability, T/C [37]: 72.5%
viability, T/C [38]: 55.2%
viability, T/C [39]: 13.7%
viability, T/C [40]: 11.2%
viability, T/C [41]: 8.98%
viability, T/C [42]: 5.11%
viability, T/C [43]: 63%
viability, T/C [44]: 47.7%
viability, T/C [45]: 15.2%
viability, T/C [46]: 9.23%
viability, T/C [47]: 6.92%
viability, T/C [48]: 5.21%
viability, T/C [49]: 83.2%
viability, T/C [50]: 38%
viability, T/C [51]: 13%
viability, T/C [52]: 6.67%
viability, T/C [53]: 7.68%
viability, T/C [54]: 4.95%
viability, T/C [55]: 84.2%
viability, T/C [56]: 48.2%
viability, T/C [57]: 13.4%
viability, T/C [58]: 9.97%
viability, T/C [59]: 6.39%
viability, T/C [60]: 4.12%

Nc1ccn(C2OC(CO)C(O)C2(F)F)c(=O)n1 (stereo not drawn) + C=CC(=O)N1CCN(c2nc(OCC3CCCN3C)nc3c(F)c(-c4nc(N)cc(C)c4C(F)(F)F)c(Cl)cc23)C(C)C1
IC50 (second compound 0.00316 µM): 0.136 µM
IC50 (second compound 0.01 µM): 0.225 µM
IC50 (second compound 0.0316 µM): 0.273 µM
IC50 (second compound 0.1 µM): 0.144 µM
IC50 (second compound 0.316 µM): 0.258 µM
IC50 (second compound 1 µM): 0.233 µM
viability, T/C (second compound 0.00316 µM, first compound 0.00316 µM): 94.2%
viability, T/C (second compound 0.00316 µM, first compound 0.01 µM): 88.7%
viability, T/C [1]: 65%
viability, T/C [2]: 59%
viability, T/C [3]: 36.6%
viability, T/C [4]: 12.9%
viability, T/C (second compound 0.01 µM, first compound 0.00316 µM): 94.2%
viability, T/C (second compound 0.01 µM, first compound 0.01 µM): 89%
viability, T/C [5]: 75.5%
viability, T/C [6]: 73.3%
viability, T/C [7]: 39.8%
viability, T/C [8]: 15.3%
viability, T/C (second compound 0.0316 µM, first compound 0.00316 µM): 93.2%
viability, T/C (second compound 0.0316 µM, first compound 0.01 µM): 93.8%
viability, T/C [9]: 72.4%
viability, T/C [10]: 67%
viability, T/C [11]: 52.7%
viability, T/C [12]: 13%
viability, T/C (second compound 0.1 µM, first compound 0.00316 µM): 119%
viability, T/C (second compound 0.1 µM, first compound 0.01 µM): 88.6%
viability, T/C [13]: 72.4%
viability, T/C [14]: 50.5%
viability, T/C [15]: 51.5%
viability, T/C [16]: 11.9%
viability, T/C (second compound 0.316 µM, first compound 0.00316 µM): 103%
viability, T/C (second compound 0.316 µM, first compound 0.01 µM): 93.4%
viability, T/C [17]: 77.1%
viability, T/C [18]: 70.1%
viability, T/C [19]: 49.6%
viability, T/C [20]: 11.7%
viability, T/C (second compound 1 µM, first compound 0.00316 µM): 106%
viability, T/C (second compound 1 µM, first compound 0.01 µM): 100%
viability, T/C [21]: 74.4%
viability, T/C [22]: 63%
viability, T/C [23]: 54.8%
viability, T/C [24]: 13%
